In paper PMC10092294 (Biomaterials, 2023):
Values belong to the compound of their own block, whether it stands above or below them.

Assays:
human Topo I = target: T1, human Topo I (Homo sapiens, UniProt P11387); assay: Topoisomerase I inhibition assay; type: biochemical; conditions: for Topo I inhibition: final drug concentration 100 μM
T1 sequence (P11387 1-765): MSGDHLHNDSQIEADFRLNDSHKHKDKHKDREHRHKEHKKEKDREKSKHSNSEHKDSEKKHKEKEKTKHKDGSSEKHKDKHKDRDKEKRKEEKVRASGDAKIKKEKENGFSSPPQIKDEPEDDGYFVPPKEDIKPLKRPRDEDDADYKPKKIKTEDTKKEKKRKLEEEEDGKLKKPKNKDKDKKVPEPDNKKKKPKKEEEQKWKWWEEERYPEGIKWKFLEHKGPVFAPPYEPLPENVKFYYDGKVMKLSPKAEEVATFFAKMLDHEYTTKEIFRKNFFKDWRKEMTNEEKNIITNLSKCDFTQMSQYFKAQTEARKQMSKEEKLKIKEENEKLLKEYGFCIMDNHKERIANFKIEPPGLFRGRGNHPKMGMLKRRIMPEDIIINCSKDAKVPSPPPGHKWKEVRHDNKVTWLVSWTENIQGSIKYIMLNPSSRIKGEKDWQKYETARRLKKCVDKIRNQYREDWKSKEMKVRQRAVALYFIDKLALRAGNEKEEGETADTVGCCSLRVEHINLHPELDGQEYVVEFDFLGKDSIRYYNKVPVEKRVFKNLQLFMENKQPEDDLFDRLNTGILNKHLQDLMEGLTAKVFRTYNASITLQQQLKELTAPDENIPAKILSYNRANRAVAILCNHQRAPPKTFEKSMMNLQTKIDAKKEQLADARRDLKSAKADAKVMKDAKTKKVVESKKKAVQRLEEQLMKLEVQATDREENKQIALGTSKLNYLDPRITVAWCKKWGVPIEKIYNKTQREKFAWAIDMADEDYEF

[1] = tested on: four different endometrial cancer cell lines; type: cell-based, human; conditions: 72 hours
human Topo IIα = human Topo IIα (Homo sapiens, UniProt P11388); assay: Topoisomerase II inhibition assay; type: biochemical; conditions: read-out: Topo II inhibition
microtubule assembly = conditions: cited from earlier work
Hec50co LOFp53 cells [2] = assay: MTS cell viability assay, Hec50co LOFp53; type: cell-based; conditions: Homo sapiens, 72 h, read-out: cell viability
Hec50co GOFp53 cells [3] = assay: MTS cell viability assay, Hec50co GOFp53; type: cell-based; conditions: Homo sapiens, 72 h, read-out: cell viability
KLE GOFp53 cells = assay: MTS cell viability assay, KLE GOFp53; type: cell-based; conditions: Homo sapiens, 72 h, read-out: cell viability
Hec50co LOFp53 cells [4] = assay: Cell cycle assay; type: cell-based, human; conditions: 10 nM PTX alone, 24 hours
Hec50co GOFp53 cells [5] = assay: Cell cycle assay; type: cell-based, human; conditions: 10 nM PTX alone, 24 hours
tubulin = tubulin (Sus scrofa, UniProt P02554); assay: Fluorescence-based tubulin polymerization assay; type: biochemical; conditions: 3 μM
caspase-9 = assay: Caspase-9 activity in Hec50co LOFp53 cells; type: cell-based, human; conditions: 24 hours
caspase-3 = assay: Caspase-3 activity in Hec50co LOFp53 cells; type: cell-based, human; conditions: 5 nM or 10 nM PTX alone, 72 hours
[6] = tested on: Hec50co LOFp53 xenograft tumors; assay: In vivo antitumor efficacy, human endometrial cancer xenograft model; design: species or system athymic Nu/Nu mice; conditions: five doses

Sequence of human Topo IIα (P11388 whole entry): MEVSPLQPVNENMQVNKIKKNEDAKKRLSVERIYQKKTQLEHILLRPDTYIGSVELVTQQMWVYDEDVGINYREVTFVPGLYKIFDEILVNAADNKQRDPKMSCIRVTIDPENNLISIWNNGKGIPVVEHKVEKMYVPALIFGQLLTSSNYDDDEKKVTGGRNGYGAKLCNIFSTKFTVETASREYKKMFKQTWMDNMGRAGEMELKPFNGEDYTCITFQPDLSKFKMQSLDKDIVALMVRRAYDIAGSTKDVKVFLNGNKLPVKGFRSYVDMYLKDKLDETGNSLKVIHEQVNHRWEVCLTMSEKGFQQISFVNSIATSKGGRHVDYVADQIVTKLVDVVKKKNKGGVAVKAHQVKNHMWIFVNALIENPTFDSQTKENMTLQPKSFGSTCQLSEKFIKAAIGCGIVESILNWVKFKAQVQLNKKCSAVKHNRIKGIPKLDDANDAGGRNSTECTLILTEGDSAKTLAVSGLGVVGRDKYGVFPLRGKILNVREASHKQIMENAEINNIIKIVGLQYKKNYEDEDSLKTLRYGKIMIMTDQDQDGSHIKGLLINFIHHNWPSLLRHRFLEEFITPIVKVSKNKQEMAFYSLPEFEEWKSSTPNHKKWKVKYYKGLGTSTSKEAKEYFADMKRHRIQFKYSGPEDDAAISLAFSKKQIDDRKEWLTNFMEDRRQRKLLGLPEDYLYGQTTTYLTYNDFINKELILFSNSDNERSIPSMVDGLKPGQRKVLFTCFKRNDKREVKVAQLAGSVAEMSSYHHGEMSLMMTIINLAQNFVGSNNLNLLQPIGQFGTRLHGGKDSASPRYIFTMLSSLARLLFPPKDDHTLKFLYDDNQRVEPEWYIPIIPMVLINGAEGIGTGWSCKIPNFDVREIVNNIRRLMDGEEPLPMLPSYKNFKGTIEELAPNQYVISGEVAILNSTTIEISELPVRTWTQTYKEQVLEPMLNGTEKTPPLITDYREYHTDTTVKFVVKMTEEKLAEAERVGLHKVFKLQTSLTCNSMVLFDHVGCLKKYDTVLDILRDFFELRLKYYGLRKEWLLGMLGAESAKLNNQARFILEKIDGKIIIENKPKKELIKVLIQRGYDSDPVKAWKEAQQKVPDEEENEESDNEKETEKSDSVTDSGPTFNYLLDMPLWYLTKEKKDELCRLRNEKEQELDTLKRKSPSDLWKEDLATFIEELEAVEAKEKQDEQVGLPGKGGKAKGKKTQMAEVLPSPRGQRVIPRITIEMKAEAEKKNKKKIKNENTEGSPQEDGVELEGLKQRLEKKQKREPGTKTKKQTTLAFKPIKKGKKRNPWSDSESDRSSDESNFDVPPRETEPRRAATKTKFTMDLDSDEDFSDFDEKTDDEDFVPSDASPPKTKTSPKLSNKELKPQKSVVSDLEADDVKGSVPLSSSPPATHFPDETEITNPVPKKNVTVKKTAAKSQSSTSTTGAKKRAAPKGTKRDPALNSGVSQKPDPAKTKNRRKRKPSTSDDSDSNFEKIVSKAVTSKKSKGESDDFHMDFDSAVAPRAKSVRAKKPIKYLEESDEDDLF
Sequence of tubulin (P02554 whole entry): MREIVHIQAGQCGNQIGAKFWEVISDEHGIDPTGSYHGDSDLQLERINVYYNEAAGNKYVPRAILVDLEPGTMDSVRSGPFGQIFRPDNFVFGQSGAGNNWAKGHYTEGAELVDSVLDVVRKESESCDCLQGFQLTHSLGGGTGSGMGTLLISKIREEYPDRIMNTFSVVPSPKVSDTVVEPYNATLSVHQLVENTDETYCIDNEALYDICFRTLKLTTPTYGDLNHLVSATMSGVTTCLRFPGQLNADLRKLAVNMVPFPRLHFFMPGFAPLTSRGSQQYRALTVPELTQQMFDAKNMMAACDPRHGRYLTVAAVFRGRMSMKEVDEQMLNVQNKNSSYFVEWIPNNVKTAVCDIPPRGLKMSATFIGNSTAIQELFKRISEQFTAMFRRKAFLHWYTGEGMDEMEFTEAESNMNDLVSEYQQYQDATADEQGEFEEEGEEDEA
Sequence of tubulin (P02550 whole entry partner): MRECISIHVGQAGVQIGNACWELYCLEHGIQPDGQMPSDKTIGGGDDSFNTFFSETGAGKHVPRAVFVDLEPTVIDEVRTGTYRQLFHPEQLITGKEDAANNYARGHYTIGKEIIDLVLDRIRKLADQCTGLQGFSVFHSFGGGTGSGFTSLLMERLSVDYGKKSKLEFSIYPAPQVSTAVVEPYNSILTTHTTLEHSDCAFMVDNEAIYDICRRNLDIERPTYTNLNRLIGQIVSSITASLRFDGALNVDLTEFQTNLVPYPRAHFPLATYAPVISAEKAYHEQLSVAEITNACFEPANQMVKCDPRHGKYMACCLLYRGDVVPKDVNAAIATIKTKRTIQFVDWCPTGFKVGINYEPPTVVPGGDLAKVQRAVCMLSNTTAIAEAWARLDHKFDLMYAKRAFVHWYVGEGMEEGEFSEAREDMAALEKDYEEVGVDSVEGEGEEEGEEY

Compound: CC[C@@]1(O)C(=O)OCc2c1cc1n(c2=O)Cc2cc3ccccc3nc2-1 [CAM, camptothecin]
inhibition at 100 µM (human Topo I; read-out: Topo I inhibition): 52.6 ± 1.3%

Topo I inhibition (human Topo I): no activity
inhibition at 100 µM (human Topo IIα): 62.3 ± 17.1%
Compound: O=C(O)c1cn(C2CC2)c2cc(N3CCNCC3)c(F)cc2c1=O [CIP, ciprofloxacin]
benefit of CIP alone or in combination with PTX in comparison to PTX alone [1]: no benefits
impact on microtubule assembly in cells (microtubule assembly): does not impact

inhibition at 100 µM (human Topo IIα): 96.3 ± 0.8%
Compound: COc1cc([C@@H]2c3cc4c(cc3[C@@H](O[C@@H]3O[C@@H]5CO[C@@H](C)O[C@H]5[C@H](O)[C@H]3O)[C@H]3COC(=O)[C@H]23)OCO4)cc(OC)c1O [ETO, etoposide]

Topo I inhibition (human Topo I): no activity
inhibition at 100 µM (human Topo IIα): 8.3 ± 4.2%
onset time of tubulin polymerization (tubulin): approximately 5 minutes
Compound: CC(=O)O[C@H]1C(=O)[C@@]2(C)[C@H]([C@H](OC(=O)c3ccccc3)[C@]3(O)C[C@H](OC(=O)[C@H](O)[C@@H](NC(=O)c4ccccc4)c4ccccc4)C(C)=C1C3(C)C)[C@]1(OC(C)=O)CO[C@@H]1C[C@@H]2O [PTX, paclitaxel]
viability at 0.01 µM (Hec50co LOFp53 cells [2]): 31.2 ± 4.1%
viability at 0.01 µM (Hec50co GOFp53 cells [3]): 17.9 ± 1.4%
viability at 0.01 µM (KLE GOFp53 cells): 63.5 ± 0.6%
cells in the G2/M phase (Hec50co LOFp53 cells [4]): 43.7 ± 0.5%
cells in the G2/M phase (Hec50co GOFp53 cells [5]): 57.3 ± 1.1%
caspase-9 activity vs untreated (caspase-9; 5 nM PTX): did not show a significant difference
caspase-9 activity vs untreated (caspase-9; 10 nM PTX): significant increase
caspase-3 activity vs untreated (caspase-3): significantly higher
average tumor volumes vs PBS group ([6]; 5 mg/kg PTX SC peritumoral): smaller than those in control mice injected with PBS, albeit not significantly
average weight of tumors vs PBS group, day 53 ([6]; 5 mg/kg PTX ± 5 mg/kg CIP2b SC peritumoral): not significantly different
